Measurements taken from paper PMC6058516, “Bispecific antibodies (anti-mPEG/anti-HER2) for active tumor targeting of docetaxel (DTX)-loaded mPEGylated nanocarriers to enhance the chemotherapeutic efficacy of HER2-overexpressing tumors” (Drug Delivery, 2018).
In brackets after ≈: the same amount, converted by molar mass.

Assays:
MCF-7 = assay: Cell viability MTT assay; type: cell-based; details: Homo sapiens, MCF7
Method: (§1) Cell viabilities of the three BC cell lines of MCF-7, MCF-7/HER2, and SKBR-3 treated with Tynen®, the LsbMDDs, DNS-LsbMDDs, and HER2-LsbMDDs were evaluated by an MTT assay. Cells were seeded at a density of 5 × 10^4 cells per well in 24-well plates and incubated for 24 h at 37 °C with 5% CO2. Then, they were treated with different concentrations of the formulations for 4 h under the same conditions. After incubation for 48 h, 50 μL of MTT (6 mg/mL) was added to each well for 3 h. The medium was removed and 200 μL of DMSO was added to each well and gently shaken to dissolve any purple formazan crystal formations. The absorbance of each well was measured at 550 nm (BioTek, Winooski, VT).

MCF-7/HER2 = assay: Cell viability MTT assay; type: cell-based; details: Homo sapiens, MCF7
Method: as §1

IC50 (MCF-7): 0.763 µg/mL (≈ 0.944 µM)
IC50 (MCF-7/HER2): 0.052 µg/mL (≈ 0.0644 µM)
Structure (SMILES): CC(=O)O[C@@]12CO[C@@H]1C[C@H](O)[C@@]1(C)C(=O)[C@H](O)C3=C(C)[C@@H](OC(=O)[C@H](O)[C@@H](NC(=O)OC(C)(C)C)c4ccccc4)C[C@@](O)([C@@H](OC(=O)c4ccccc4)[C@H]21)C3(C)C [DTX, docetaxel]
